Assay results reported in patent US8895474B2, “Herbicidally active cyclopentanediones and derivatives thereof, and their use in controlling weeds” (Syngenta Limited, priority 2009, dated 2014).

Columns and labels:
Assay type in all cases: in vivo
Conditions in all cases: 312 h, rate 250 g/ha, evaluated after 13 days, 100=total damage to plant, 0=no damage to plant
[1] = tested on: Alopecurus myosuroides (ALOMY); assay: Pre-emergence herbicidal activity, glasshouse pot test
Method: (§1) Seeds of a variety of test species were sown in standard soil in pots. After cultivation for one day (pre-emergence) or after 8 days cultivation (post-emergence) under controlled conditions in a glasshouse (at 24/16° C., day/night; 14 hours light; 65% humidity), the plants were sprayed with an aqueous spray solution derived from the formulation of the technical active ingredient in acetone/water (50:50) solution containing 0.5% Tween 20 (polyoxyethelyene sorbitan monolaurate, CAS RN 9005-64-5). The test plants were then grown in a glasshouse under controlled conditions in a glasshouse (at 24/16° C., day/night; 14 hours light; 65% humidity) and watered twice daily. After 13 days for pre and post-emergence, the test was evaluated (100=total damage to plant; 0=no damage to plant). Test Plants: Lolium perenne (LOLPE), Alopecurus myosuroides (ALOMY), Echinochloa crus-galli (ECHCG), and Avena fatua (AVEFA). Pre-Emergence Activity

Avena fatua (AVEFA) [2] = assay: as above
Method: as §1

[3] = tested on: Echinochloa crus-galli (ECHCG); assay: as above
Method: as §1

Lolium perenne (LOLPE) [4] = assay: as above
Method: as §1

[5] = tested on: Alopecurus myosuroides (ALOMY); assay: Post-emergence herbicidal activity, glasshouse pot test
Method: as §1, with “Post-Emergence” for “Pre-Emergence”

Avena fatua (AVEFA) [6] = assay: as above
Method: as §1, with “Post-Emergence” for “Pre-Emergence”

[7] = tested on: Echinochloa crus-galli (ECHCG); assay: as above
Method: as §1, with “Post-Emergence” for “Pre-Emergence”

Lolium perenne (LOLPE) [8] = assay: as above
Method: as §1, with “Post-Emergence” for “Pre-Emergence”

SMILES | pest or weed control at 250 g/ha [1] [%] | pest or weed control at 250 g/ha (Avena fatua (AVEFA) [2]) [%] | pest or weed control at 250 g/ha [3] [%] | pest or weed control at 250 g/ha (Lolium perenne (LOLPE) [4]) [%] | pest or weed control at 250 g/ha [5] [%] | pest or weed control at 250 g/ha (Avena fatua (AVEFA) [6]) [%] | pest or weed control at 250 g/ha [7] [%] | pest or weed control at 250 g/ha (Lolium perenne (LOLPE) [8]) [%]
CCc1ccc(Oc2ccc(Br)c(Cl)c2)cc1C1=C(O)[C@H]2[C@@H](C1=O)[C@@H]1CC[C@H]2O1 [Compound A-48] | 80 | 80 | 90 | 80 | 80 | 80 | 90 | 80
CCc1ccc(Oc2ncc(Cl)cc2F)cc1C1=C(O)CCC1=O [Compound A-19] | 90 | 80 | 90 | 90 | 80 | 60 | 100 | 50
CCc1ccc(Oc2ccc(Cl)cc2F)cc1C1=C(O)[C@H]2[C@H]3CC[C@H](C3)[C@H]2C1=O [Compound A-25] | 20 | 30 | 70 | 70 | 50 | 40 | 90 | 60
CCc1ccc(Oc2ncc(Cl)cc2Cl)cc1C1=C(O)C2C(C1=O)[C@H]1CC[C@@H]2CC1 (some centres unmarked) [Compound A-90] | 70 | 70 | 100 | 100 | 90 | 100 | 100 | 100
CCc1ccc(Oc2ccc3cc(Cl)ccc3n2)cc1C1=C(O)CCC1=O [Compound A-43] | 40 | 10 | 60 | 50 | 60 | 30 | 100 | 30
CCc1ccc(Oc2ccc(Br)cc2Cl)cc1C1=C(O)CCC1=O [Compound A-35] | 30 | 10 | 20 | 60 | 10 | 20 | 30 | 20
CCc1ccc(Oc2ccc(C(F)(F)F)cc2[N+](=O)[O-])cc1C1=C(O)C2C(C1=O)[C@H]1CC[C@@H]2CC1 (some centres unmarked) [Compound A-105] | 10 | 0 | 60 | 40 | 40 | 40 | 90 | 30
CCc1ccc(Oc2ccc(C(F)(F)F)cc2Br)cc1C1=C(O)CCC1=O [Compound A-80] | 0 | 10 | 80 | 50 | 40 | 50 | 80 | 30
CCc1ccc(Oc2ccc(Cl)cc2Cl)cc1C1=C(O)C2C(C1=O)[C@H]1CC[C@@H]2CC1 (some centres unmarked) [Compound A-29] | 0 | 0 | 50 | 0 | 60 | 0 | 100 | 0
CCc1ccc(Oc2ccc(Cl)cc2)cc1C1=C(O)C2C(C1=O)[C@H]1CC[C@@H]2CC1 (some centres unmarked) [Compound A-31] | 20 | 0 | 90 | 50 | 100 | 80 | 100 | 40
